Columns and labels:
[1] = system: Staphylococcus aureus ATCC 25923 or ATCC 29213; test: MIC, broth dilution (CA-SFM); format: cell-based; conditions: Staphylococcus aureus ATCC 25923 or ATCC 29213; mean (n = 3); read-out: MIC S. a
MRSA ATCC 43300 = test: MIC, CO-ADD broth microdilution; format: cell-based, Staphylococcus aureus; conditions: Staphylococcus aureus; MRSA ATCC 43300; mean (n = 2); read-out: MIC MRSA
[2] = system: Escherichia coli ATCC 25922; test: MIC, CO-ADD broth microdilution; format: cell-based; conditions: ATCC25922, mean (n = 2)
[3] = system: Pseudomonas aeruginosa PAO1 or ATCC 27853; test: MIC, broth dilution (CA-SFM); format: cell-based; conditions: mean (n = 3)
[4] = system: Klebsiella pneumoniae ATCC700603; test: MIC, CO-ADD broth microdilution; format: cell-based; conditions: mean (n = 2)
[5] = system: Acinetobacter baumannii ATCC19606; test: MIC, CO-ADD broth microdilution; format: cell-based; conditions: mean (n = 2)
[6] = system: Candida albicans ATCC90028; test: Antifungal MIC, CO-ADD; format: cell-based; conditions: mean (n = 2)
Outline: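 Yeast from 3-day YPD cultures was diluted in YNB broth to a final 2.5 × 10^3 CFU/mL and incubated at 35 °C for 36 h without shaking. C. albicans MICs were read by OD530 absorbance. QC used fluconazole and Z'-factor controls.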

[7] = system: Cryptococcus neoformans ATCC208821; test: Antifungal MIC, CO-ADD; format: cell-based
Outline: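 Fungal strains were grown on YPD agar at 30 °C for 3 days. Five colonies were used to make a yeast suspension of 1 × 10^6 to 5 × 10^6 CFU/mL, which was diluted in yeast nitrogen base (YNB) broth to 2.5 × 10^3 CFU/mL. Covered plates were incubated without shaking at 35 °C for 36 h. Fluconazole was the positive control, and quality was judged from antimicrobial controls and the Z'-factor.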

[8] = Cytotoxicity assay (resazurin); format: cell-based, human; conditions: human; HEK293 cells; mean (n = 2); highest dose tested 32 μg/mL; read-out: Cytotoxicity (concentration of compound at 50% cytotoxicity, IC50)
human red blood cells = test: Hemolytic assay; format: cell-based; conditions: mean (n = 2)
Outline: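 Washed human erythrocytes at 0.5 × 10^8 cells/mL in 0.9% NaCl, shaken 10 min with compound, then held 1 h at 37 °C. Released hemoglobin in supernatant after centrifugation read at OD405; HC10 and HC50 from variable-slope sigmoidal fit against log concentration.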

P. aeruginosa ATCC27853 = test: Doxycycline potentiation (MIC of antibiotic in presence of synergizing compound); format: cell-based, Pseudomonas aeruginosa; conditions: doxycycline 2 μg/mL, P. aeruginosa ATCC 27853
[9] = ATCC208821, Cryptococcus neoformans ATCC208821, mean (n = 2)

| SMILES | MIC [1] [µM] | MIC (MRSA ATCC 43300) [µM] | MIC [2] [µM] | MIC [3] [µM] | MIC [4] [µM] | MIC ([5]; 18 h) [µM] | MIC [6] [µM] | MIC [7, 9] [µM] | melting point [°C] | MIC [5] [µM] | fold increase (antibiotic enhancement vs intrinsic MIC) (P. aeruginosa ATCC27853) [fold] | MIC ([6]; 36 h) [µM] | MIC ([7]; ATCC208821, 36 h, Cryptococcus neoformans ATCC208821, mean (n = 2)) [µM] | IC50 at 20 h [8] [µM] | Hemolysis (HC10, concentration at 10% hemolytic activity) (human red blood cells) [µM] |
| --- | --- | --- | --- | --- | --- | --- | --- | --- | --- | --- | --- | --- | --- | --- | --- |
| Cl.Cl.S=C(NCCCNCCCCNCCCNC(=S)NC(c1ccccc1)c1ccccc1)NC(c1ccccc1)c1ccccc1 [Compound 6a, N^1,N^4-Bis(3-(3-benzhydrylthioureido)propyl)butane-1,4-diaminium chloride] | > 276 | ≤ 0.34 | 2.8 | 138 | > 44.1 | ≤ 0.35 | ≤ 0.34 | 11 | 168 to 169 | – | – | – | – | > 44.1 | 7.73 |
| Cl.Cl.S=C(NCCCNCCCCCCCNCCCNC(=S)NC(c1ccccc1)c1ccccc1)NC(c1ccccc1)c1ccccc1 [Compound 6c, N^1,N^7-Bis(3-(3-benzhydrylthioureido)propyl)heptane-1,7-diaminium chloride] | 65 | ≤ 0.33 | ≤ 0.33 | > 260 | > 41.7 | – | ≤ 0.33 | 0.65 | 115 to 116 | 2.6 | – | – | – | > 41.7 | ≤0.326 |
| Cl.Cl.S=C(NCCCNCCCCCCCCNCCCNC(=S)NC(c1ccccc1)c1ccccc1)NC(c1ccccc1)c1ccccc1 [Compound 6d, N^1,N^8-Bis(3-(3-benzhydrylthioureido)propyl)octane-1,8-diaminium chloride] | 6.25 | ≤ 0.32 | ≤ 0.32 | 100 | 40.9 | – | ≤ 0.32 | 20.5 | 113 to 115 | 5.1 | – | – | – | 10.1 | 2.07 |
| Cl.Cl.S=C(NCCCNCCCCCCCCCCCCNCCCNC(=S)NC(c1ccccc1)c1ccccc1)NC(c1ccccc1)c1ccccc1 [Compound 6f, N^1,N^12-Bis(3-(3-benzhydrylthioureido)propyl)dodecane-1,12-diaminium chloride] | > 239 | ≤ 0.3 | 2.4 | 120 | > 38.2 | – | ≤ 0.3 | > 38.2 | 103 to 104 | > 38.2 | – | – | – | ≤ 0.298 | >38.2 |
| O=C(O)CCC(=O)NCCCc1ccccc1 [Compound 8, 4-oxo-4-((3-phenylpropyl)amino)butanoic acid] | – | – | – | – | – | – | – | – | 94 to 95 | – | – | – | – | – | – |
| O=C(O)CCC(=O)NCCC(c1ccccc1)c1ccccc1 [Compound 10, 4-((3,3-diphenylpropyl)amino)-4-oxobutanoic acid] | – | – | – | – | – | – | – | – | 134 to 137 | – | – | – | – | – | – |
| O=C(CC(c1ccccc1)c1ccccc1)NCCCNCCCCNCCCNC(=O)CC(c1ccccc1)c1ccccc1.O=C(O)C(F)(F)F.O=C(O)C(F)(F)F [Compound 15a, N^1,N^4-Bis(3-(3,3-diphenylpropanamido)propyl)butane-1,4-diaminium 2,2,2-trifluoroacetate] | 6.25 | ≤ 0.3 | ≤ 0.3 | 50 | > 37.8 | – | > 37.8 | > 37.8 | – | > 37.8 | 4 | – | – | > 37.8 | >37.8 |

Second part, led by results:

| MIC [1] [µM] | MIC (MRSA ATCC 43300) [µM] | MIC [2] [µM] | MIC [3] [µM] | MIC [4] [µM] | MIC ([5]; 18 h) [µM] | MIC [6] [µM] | MIC [7, 9] [µM] | melting point [°C] | MIC [5] [µM] | fold increase (antibiotic enhancement vs intrinsic MIC) (P. aeruginosa ATCC27853) [fold] | MIC ([6]; 36 h) [µM] | MIC ([7]; ATCC208821, 36 h, Cryptococcus neoformans ATCC208821, mean (n = 2)) [µM] | SMILES | IC50 at 20 h [8] [µM] | Hemolysis (HC10, concentration at 10% hemolytic activity) (human red blood cells) [µM] |
| --- | --- | --- | --- | --- | --- | --- | --- | --- | --- | --- | --- | --- | --- | --- | --- |
| 3.12 | < 0.23 | < 0.23 | 300 | > 30.3 | – | > 30.3 | < 0.23 | – | > 30.3 | – | – | – | O=C(NCCCNCCCCCCCCCCNCCCNC(=O)C(c1ccccc1)(c1ccccc1)c1ccccc1)C(c1ccccc1)(c1ccccc1)c1ccccc1.O=C(O)C(F)(F)F.O=C(O)C(F)(F)F [Compound 17e, N^1,N^10-Bis(3-(2,2,2-triphenylacetamido)propyl)decane-1,10-diaminium 2,2,2-trifluoroacetate] | > 30.3 | ≤0.234 |
| 6.25 | < 0.23 | > 29.5 | 300 | > 29.5 | – | < 0.23 | < 0.23 | – | > 29.5 | – | – | – | O=C(NCCCNCCCCCCCCCCCCNCCCNC(=O)C(c1ccccc1)(c1ccccc1)c1ccccc1)C(c1ccccc1)(c1ccccc1)c1ccccc1.O=C(O)C(F)(F)F.O=C(O)C(F)(F)F [Compound 17f, N^1,N^12-Bis(3-(2,2,2-triphenylacetamido)propyl)dodecane-1,12-diaminium 2,2,2-trifluoroacetate] | ≤ 0.231 | ≤0.231 |
| 3.12 | < 0.25 | 0.5 | 25 | 32 | – | 8 | 32 | – | 4 | – | – | – | O=C(CC(c1ccccc1)(c1ccccc1)c1ccccc1)NCCCNCCCCNCCCNC(=O)CC(c1ccccc1)(c1ccccc1)c1ccccc1.O=C(O)C(F)(F)F.O=C(O)C(F)(F)F [Compound 18a, N^1,N^4-Bis(3-(3,3,3-triphenylpropanamido)propyl)butane-1,4-diaminium 2,2,2-trifluoroacetate] | 18.3 | 1.58 |
| 1.56 | < 0.24 | 0.97 | 50 | 31.2 | – | 7.79 | 31.2 | – | 7.8 | – | – | – | O=C(CC(c1ccccc1)(c1ccccc1)c1ccccc1)NCCCNCCCCCCNCCCNC(=O)CC(c1ccccc1)(c1ccccc1)c1ccccc1.O=C(O)C(F)(F)F.O=C(O)C(F)(F)F [Compound 18b, N^1,N^6-Bis(3-(3,3,3-triphenylpropanamido)propyl)hexane-1,6-diaminium 2,2,2-trifluoroacetate] | 15.7 | 0.985 |
| 1.56 | < 0.24 | 3.84 | 100 | 30.7 | – | 3.84 | 30.7 | – | 1.92 | – | – | – | O=C(CC(c1ccccc1)(c1ccccc1)c1ccccc1)NCCCNCCCCCCCNCCCNC(=O)CC(c1ccccc1)(c1ccccc1)c1ccccc1.O=C(O)C(F)(F)F.O=C(O)C(F)(F)F [Compound 18c, N^1,N^7-Bis(3-(3,3,3-triphenylpropanamido)propyl)heptane-1,7-diaminium 2,2,2-trifluoroacetate] | 13.2 | 3.12 |
| 3.12 | < 0.24 | 7.58 | 200 | > 30.3 | – | < 0.24 | 7.6 | – | 7.6 | – | – | – | O=C(CC(c1ccccc1)(c1ccccc1)c1ccccc1)NCCCNCCCCCCCCNCCCNC(=O)CC(c1ccccc1)(c1ccccc1)c1ccccc1.O=C(O)C(F)(F)F.O=C(O)C(F)(F)F [Compound 18d, N^1,N^8-Bis(3-(3,3,3-triphenylpropanamido)propyl)octane-1,8-diaminium 2,2,2-trifluoroacetate] | 9.7 | 3.17 |
| 1.56 | < 0.23 | > 29.5 | 200 | > 29.5 | – | < 0.23 | < 0.23 | – | < 0.23 | – | – | – | O=C(CC(c1ccccc1)(c1ccccc1)c1ccccc1)NCCCNCCCCCCCCCCNCCCNC(=O)CC(c1ccccc1)(c1ccccc1)c1ccccc1.O=C(O)C(F)(F)F.O=C(O)C(F)(F)F [Compound 18e, N^1,N^10-Bis(3-(3,3,3-triphenylpropanamido)propyl)decane-1,10-diaminium 2,2,2-trifluoroacetate] | 7.23 | ≤0.231 |
| 25 | < 0.22 | > 28.8 | 300 | > 28.8 | – | – | – | – | > 28.8 | – | < 0.23 | < 0.23 | O=C(CC(c1ccccc1)(c1ccccc1)c1ccccc1)NCCCNCCCCCCCCCCCCNCCCNC(=O)CC(c1ccccc1)(c1ccccc1)c1ccccc1.O=C(O)C(F)(F)F.O=C(O)C(F)(F)F [Compound 18f, N^1,N^12-Bis(3-(3,3,3-triphenylpropanamido)propyl)dodecane-1,12-diaminium 2,2,2-trifluoroacetate] | 0.409 | ≤0.225 |

Source: PMC10052977, “α,ω-Diacyl-Substituted Analogues of Natural and Unnatural Polyamines: Identification of Potent Bactericides That Selectively Target Bacterial Membranes” (International Journal of Molecular Sciences, 2023)
